Test results reported in PMC3025922 (BMC Biology, 2010).
Several values for one entry are separate records, joined by “and”; a condition that tells them apart may be missing. Equal values may be shown once. Read-outs that look alike come from different tables or passages of the source.

Experiments:
LNCaP cells = assay: Cell cycle analysis by flow cytometry, LNCaP; type: cell-based, human
Procedure: (§1) Cells were exposed to SMIPs (40 μM) for 24 h and 48 h. Cells were trypsinized, washed with PBS and suspended in 600 μL PBS. Cells were fixed by adding 1.4 mL cold absolute ethanol and kept at -20°C for at least 12 h. After washing once with PBS, the cells were resuspended in 250 μL PBS containing 2.5 μg RNAse A and incubated for 45 min at room temperature. Staining was done by adding 40 μg/mL of propidium iodine followed by incubation for 15 min at room temperature. DNA-bound fluorescence was read at 564 to 606 nm using FACSort and FACSCanto flow cytometers (BD Biosciences) at the Flow Cytometry Facility of the Sanford-Burnham Medical Research Institute. Distribution of cells in the different cell cycle phase was determined with ModFit LT 3.2.1 or FlowJo 8.6 software. Aggregates were excluded from the analysis manually using pulse shape or identified by automated modelling in ModFit LT.

LNCaP-S14 cells [1] = assay: Cell cycle analysis by flow cytometry, LNCaP-S14; type: cell-based, human
Procedure: as §1

DU145 cells [2] = assay: Cell cycle analysis by flow cytometry, DU145; type: cell-based, human
Procedure: as §1

PC3 cells [3] = assay: Cell cycle analysis by flow cytometry, PC3; type: cell-based, human
Procedure: as §1

IMR90 cells = assay: Cell cycle analysis by flow cytometry, IMR90; type: cell-based, human
Procedure: as §1

LNCaP-S14 cells [4] = assay: Cell cycle distribution in LNCaP-S14 transfected with siRNAs for p27 and p21; type: cell-based, human
Procedure: as §1
LNCaP-S14 cells were seeded in 6 cm dishes or six-well-plates coated with poly-lysine the day before transfection. 10-20 nM of siRNA was transfected using DharmaFECT 3 (Thermo Scientific) according to the manufacturer's instructions. Briefly, siRNAs were dissolved in siRNA suspension buffer (Quiagen) at 20 μM, heated to 90°C for 1 min and incubated at 37°C for 1 h. siRNAs were added to the DharmaFECT 3 reagent diluted in Optimem media (1:100) and incubated for 20 min at room temperature. The mix was added to the cells for 24 h. Treatment with SMIPs (40 μM) or vehicle was carried on for another 24 h. Cells were obtained for FACS or lysed for immunoblotting analysis as described above. Untransfected cells as well as cells transfected with non-specific siRNA were used as controls. Silencer® Negative Control siRNA No.1 from Ambion (Applied Biosciences, CA, USA) was used as non-specific control siRNA. siRNA target sequences for p27 and p21 synthesized by IDT (Integrated DNA Technologies Inc, Iowa, USA) were as follows; p27 siRNA: […], and p21 siRNA: […] [56].

[5] = system: p27 protein levels in LNCaP-S14 cells; assay: Immunoblot quantification of p27, LNCaP-S14; type: cell-based, human
Procedure: (§2) Total cell lysate from cells treated with vehicle (DMSO) or compounds were obtained by incubating cells in lysis buffer (25 mM Tris-HCl pH 7.4, 150 mM NaCl, 0.5% Triton X-100, protease inhibitors) for 15 min at 4°C. The supernatant was collected by centrifugation and the amount of protein was determined with a Bio-Rad protein assay (Bio-Rad) using BSA as standard. Equal amounts of protein were subjected to SDS-PAGE (4%-20% gels, Invitrogen) and transferred to PVDF membranes. The membranes were blocked with TBST (50 mM Tris-HCl pH 7.5, 150 mM NaCl, 0.05% Tween-20) containing 5% non-fat dry milk or bovine serum albumin (BSA) for 1 h at room temperature, followed by incubation in primary antibodies 4°C overnight. Membranes were washed and incubated with secondary antibodies conjugated to HRP (Jackson ImmunoResearch Laboratories) for 1 h at room temperature. Signals were visualized using the ECL Western Blotting Substrate (Pierce Biotechnology, IL, USA) according to the manufacturer's instructions. Membranes were stripped using Restore™ Western Blot Stripping Buffer (Pierce Biotechnology). Films were scanned and quantification of the bands was performed using Image J software http://rsbweb.nih.gov/ij/.

[6] = system: p21 protein levels in LNCaP-S14 cells; assay: Immunoblot quantification of p21, LNCaP-S14; type: cell-based, human
Procedure: as §2

[7] = system: p27 protein levels in LNCaP cells; assay: Immunoblot quantification of p27, LNCaP; type: cell-based, human
Procedure: as §2

[8] = system: p21 protein levels in LNCaP cells; assay: Immunoblot quantification of p21, LNCaP; type: cell-based, human
Procedure: as §2

[9] = system: p27 protein levels in PC3 cells; assay: Immunoblot quantification of p27, PC3; type: cell-based, human
Procedure: as §2

[10] = system: p21 protein levels in PC3 cells; assay: Immunoblot quantification of p21, PC3; type: cell-based, human
Procedure: as §2

[11] = system: p27 protein levels in DU145 cells; assay: Immunoblot quantification of p27, DU145; type: cell-based, human
Procedure: as §2

[12] = system: p21 protein levels in DU145 cells; assay: Immunoblot quantification of p21, DU145; type: cell-based, human
Procedure: as §2

[13] = system: p27 protein levels in HeLa cells; assay: Immunoblot quantification of p27, HeLa; type: cell-based, human
Procedure: as §2

[14] = system: p21 protein levels in HeLa cells; assay: Immunoblot quantification of p21, HeLa; type: cell-based, human
Procedure: as §2

[15] = system: p27 protein levels in IMR90 cells; assay: Immunoblot quantification of p27, IMR90; type: cell-based, human
Procedure: as §2

[16] = system: p21 protein levels in IMR90 cells; assay: Immunoblot quantification of p21, IMR90; type: cell-based, human
Procedure: as §2

[17] = system: p27 stability in LNCaP-S14 cells; assay: Protein half-life by cycloheximide chase; type: cell-based, human; settings: human
Procedure: LNCaP-S14 cells were treated with SMIPs (40 μM) for 18 h followed by the addition of 100 μg/mL cycloheximide (CHX). Cell extracts were obtained as described above at different times after CHX addition. Protein lysate was subjected to SDS-PAGE and immunoblotting for p27, p21 and SKP2. Tubulin was used as loading control. Protein half-lives were calculated using a web based calculator http://www.1728.com/halflife.htm.

LNCaP-S14 cells [18] = assay: Cell Death Detection ELISA (cytoplasmic histone-associated DNA fragments); type: cell-based, human
Procedure: Apoptosis was measured using the Cell Death Detection ELISA (Roche, Basel, Switzerland) following the manufacturer's instructions. Briefly, LNCaP-S14 cells (0.1 × 10^6) were seeded in 12-well plates and treated with SMIPs (40 μM) for 24 h. Cells were collected in medium, spun at 1000 rpm, and resuspended in 1 mL PBS at the specified time points (day 1 to day 3). The cell suspension was divided into two parts. The first half was used for determination of cytoplasmic histone-associated DNA fragments (ELISA), the second for protein determination to normalize the ELISA data to the amount of input protein.

[19] = system: SKP2 levels in LNCaP-S14 cells; type: cell-based, human
PC3 cells [20] = assay: MTT cytotoxicity assay, PC3; settings: Homo sapiens, read-out: IC50 (MTT cytotoxicity)
Procedure: (§3) LNCaP-S14 (10,000 cells), PC3, DU145 or IMR90 cells (5000 cells) were seeded in 96-well plates and treated with increasing concentrations of the respective SMIPs for 72 h. Cell viability was assessed using the MTT cell proliferation assay (ATCC®, Middlesex, UK) according to the manufacturer's protocol. IC50 was calculated using the BioDataFit 1.02 software http://www.changbioscience.com/stat/ec50.html.

DU145 cells [21] = assay: MTT cytotoxicity assay, DU145; settings: Homo sapiens, read-out: IC50 (MTT cytotoxicity)
Procedure: as §3

LNCaP-WT cells = assay: MTT cytotoxicity assay, LNCaP-WT; settings: Homo sapiens, read-out: IC50 (MTT cytotoxicity)
Procedure: as §3

LNCaP-S14 cells [22] = assay: MTT cytotoxicity assay, LNCaP-S14; settings: Homo sapiens, 72 h, read-out: IC50 (MTT cytotoxicity)
Procedure: as §3

[23] = system: polyubiquitylated proteins in LNCaP-S14 cells; assay: Anti-ubiquitin immunoblot of total lysate; type: cell-based, human; settings: LNCaP-S14, SMIPs 20 and 40 μM, MG132 20 μM, bortezomib 100 nM, 24 h
Procedure: as §2

[24] = PC3, 24 h, SMIPs 40 μM, MG132 20 μM, bortezomib 100 nM
[25] = DU145, 24 h, SMIPs 40 μM, MG132 20 μM, bortezomib 100 nM
[26] = HeLa, 24 h, SMIPs 40 μM, MG132 20 μM, bortezomib 100 nM
[27] = IMR90, 24 h, SMIPs 40 μM, MG132 20 μM, bortezomib 100 nM

Compound: CCCCc1ccc(NC(C)=O)c(C)c1 [SMIP004]
- Cell cycle distribution G1 (LNCaP cells): 81.7 and 87.3
- Cell cycle distribution G2 (LNCaP cells): 9.8 and 6.6
- Cell cycle distribution G1 (LNCaP-S14 cells [1]): 72.3 and 75.8
- Cell cycle distribution G2 (LNCaP-S14 cells [1]): 7.1 and 6.4
- Cell cycle distribution S (LNCaP-S14 cells [1]): 19.1 and 14.7
- Cell cycle distribution G1 (DU145 cells [2]): 75.7 and 79.7
- Cell cycle distribution G2 (DU145 cells [2]): 8.0 and 10.4
- Cell cycle distribution S (DU145 cells [2]): 14.1 and 9.0
- Cell cycle distribution G1 (PC3 cells [3]): 58.5 and 65.8
- Cell cycle distribution G2 (PC3 cells [3]): 25.7 and 24.3
- Cell cycle distribution S (PC3 cells [3]): 14.3 and 8.5
- Cell cycle distribution G1 (IMR90 cells): 68.6 and 77.6
- Cell cycle distribution G2 (IMR90 cells): 13.2 and 10.9
- Cell cycle distribution S (IMR90 cells): 18.2 and 11.5
- % G1 (LNCaP-S14 cells [4]): 66.92% and 62.86% and 69.79% and 66.56%
- % G2 (LNCaP-S14 cells [4]): 13.34% and 17.13% and 13.32% and 15.94%
- % S (LNCaP-S14 cells [4]): 19.75% and 20.02% and 16.90% and 17.50%
- p27 accumulation by immunoblotting [5]: ~ threefold
- p27 protein level (immunoblot, DMSO = 1.0) [5]: 2.4 ± 0.7
- p21 protein level (immunoblot, DMSO = 1.0) [6]: 2.8 ± 0.7
- p27 protein level (immunoblot, DMSO = 1.0) [7]: 2.1 ± 1.1
- p21 protein level (immunoblot, DMSO = 1.0) [8]: 2.7 ± 0.1
- p27 protein level (immunoblot, DMSO = 1.0) [9]: 1.1 ± 0.3
- p21 protein level (immunoblot, DMSO = 1.0) [10]: 1.7 ± 0.9
- p27 protein level (immunoblot, DMSO = 1.0) [11]: 1.3 ± 0.1
- p21 protein level (immunoblot, DMSO = 1.0) [12]: 1.7 ± 0.5
- p27 protein level (immunoblot, DMSO = 1.0) [13]: 1.1 ± 0.2
- p21 protein level (immunoblot, DMSO = 1.0) [14]: 1.1 ± 0.1
- p27 protein level (immunoblot, DMSO = 1.0) [15]: 1.2 ± 0.3
- p21 protein level (immunoblot, DMSO = 1.0) [16]: 1.1 ± 0.0
- p27 half-life [17]: > 6 h
- increase in the amount of mono and oligonucleosomes (LNCaP-S14 cells [18]): three- to fivefold
- SKP2 levels (endogenous and exogenous) by immunoblotting [19]: decrease
- IC50 (PC3 cells [20]; PC-3, 72 h): > 80 µM
- IC50 (PC3 cells [20]; PC-3, 96 h): > 80 µM
- IC50 (DU145 cells [21]; DU-145, 72 h): > 80 µM
- IC50 (DU145 cells [21]; DU-145, 96 h): > 80 µM
- IC50 (LNCaP-WT cells; 72 h): 40 µM
- IC50 (LNCaP-WT cells; 96 h): 2.4 µM
- IC50 (LNCaP-S14 cells [22]): 1.09 µM

Compound: CC(C)C[C@H](NC(=O)[C@H](Cc1ccccc1)NC(=O)c1cnccn1)B(O)O [Bortezomib, reference compound]
- p27 protein level (immunoblot, DMSO = 1.0) ([5]; LNCaP-S14, 24 h, SMIPs 40 μM, MG132 20 μM, bortezomib 100 nM): 1.8
- p27 protein level (immunoblot, DMSO = 1.0) ([7]; LNCaP, 24 h, SMIPs 40 μM, MG132 20 μM, bortezomib 100 nM): 2.1
- p27 protein level (immunoblot, DMSO = 1.0) [9, 24]: 2.5 ± 1.0
- p21 protein level (immunoblot, DMSO = 1.0) [10, 24]: 4.7 ± 1.4
- p27 protein level (immunoblot, DMSO = 1.0) [11, 25]: 1.7 ± 0.5
- p21 protein level (immunoblot, DMSO = 1.0) [12, 25]: 2.5 ± 0.4
- p27 protein level (immunoblot, DMSO = 1.0) [13, 26]: 1.3 ± 0.2
- p21 protein level (immunoblot, DMSO = 1.0) [14, 26]: 2.2 ± 0.8
- p27 protein level (immunoblot, DMSO = 1.0) [15, 27]: 1.8 ± 0.0
- p21 protein level (immunoblot, DMSO = 1.0) [16, 27]: 1.8 ± 0.4
- accumulation of polyubiquitylated proteins [23]: readily seen
